The kinase profiling compilation of Christmann-Franck et al. (2016)

Columns and labels:
Experiment in all cases: KINOMEscan competition binding
Conditions in all cases: compound 10.0 µM
CDK9 (human) = CDK9 (human) (UniProt P50750)
PRKD3 (human) = PRKD3 (human) (UniProt O94806)
BMPR1B (human) = BMPR1B (human) (UniProt O00238)
FLT4 (human) = FLT4 (human) (UniProt P35916)
CDK5 (human) = CDK5 (human) (UniProt Q00535)
LIMK2 (human) = LIMK2 (human) (UniProt P53671)
PI4KB (human) = PI4KB (human) (UniProt Q9UBF8)
PAK7 (human) = PAK7 (human) (UniProt Q9P286)
MAP4K4 (human) = MAP4K4 (human) (UniProt O95819)
FES (human) = FES (human) (UniProt P07332)
MAP4K3 (human) = MAP4K3 (human) (UniProt Q8IVH8)
SIK3 (human) = SIK3 (human) (UniProt Q9Y2K2)
[1] = system: KIT (human), P10721 [V559D]
TNIK (human) = TNIK (human) (UniProt Q9UKE5)
PIM1 (human) = PIM1 (human) (UniProt P11309)
DAPK3 (human) = DAPK3 (human) (UniProt O43293)
STK32A (human) = STK32A (human) (UniProt Q8WU08)
[2] = system: EIF2AK4 KD2 (human), Q9P2K8 [S808G]
PTK2 (human) = PTK2 (human) (UniProt Q05397)
NEK9 (human) = NEK9 (human) (UniProt Q8TD19)
NUAK1 (human) = NUAK1 (human) (UniProt O60285)
BMP2K (human) = BMP2K (human) (UniProt Q9NSY1)
CDC2L2 (human) = CDC2L2 (human) (UniProt Q9UQ88)
MLTK (human) = MLTK (human) (UniProt Q9NYL2)
PKN2 (human) = PKN2 (human) (UniProt Q16513)
AKT1 (human) = AKT1 (human) (UniProt P31749)
LTK (human) = LTK (human) (UniProt P29376)
CDC42BPG (human) = CDC42BPG (human) (UniProt Q6DT37)
MARK3 (human) = MARK3 (human) (UniProt P27448)
RIOK2 (human) = RIOK2 (human) (UniProt Q9BVS4)
ZAP70 (human) = ZAP70 (human) (UniProt P43403)
MAP3K10 (human) = MAP3K10 (human) (UniProt Q02779)
EPHA7 (human) = EPHA7 (human) (UniProt Q15375)
STK25 (human) = STK25 (human) (UniProt O00506)
PIK3C2B (human) = PIK3C2B (human) (UniProt O00750)
AURKC (human) = AURKC (human) (UniProt Q9UQB9)
FYN (human) = FYN (human) (UniProt P06241)
SIK1 (human) = SIK1 (human) (UniProt P57059)

Chain of NEK9 (human) (Q8TD19 whole entry, looked up): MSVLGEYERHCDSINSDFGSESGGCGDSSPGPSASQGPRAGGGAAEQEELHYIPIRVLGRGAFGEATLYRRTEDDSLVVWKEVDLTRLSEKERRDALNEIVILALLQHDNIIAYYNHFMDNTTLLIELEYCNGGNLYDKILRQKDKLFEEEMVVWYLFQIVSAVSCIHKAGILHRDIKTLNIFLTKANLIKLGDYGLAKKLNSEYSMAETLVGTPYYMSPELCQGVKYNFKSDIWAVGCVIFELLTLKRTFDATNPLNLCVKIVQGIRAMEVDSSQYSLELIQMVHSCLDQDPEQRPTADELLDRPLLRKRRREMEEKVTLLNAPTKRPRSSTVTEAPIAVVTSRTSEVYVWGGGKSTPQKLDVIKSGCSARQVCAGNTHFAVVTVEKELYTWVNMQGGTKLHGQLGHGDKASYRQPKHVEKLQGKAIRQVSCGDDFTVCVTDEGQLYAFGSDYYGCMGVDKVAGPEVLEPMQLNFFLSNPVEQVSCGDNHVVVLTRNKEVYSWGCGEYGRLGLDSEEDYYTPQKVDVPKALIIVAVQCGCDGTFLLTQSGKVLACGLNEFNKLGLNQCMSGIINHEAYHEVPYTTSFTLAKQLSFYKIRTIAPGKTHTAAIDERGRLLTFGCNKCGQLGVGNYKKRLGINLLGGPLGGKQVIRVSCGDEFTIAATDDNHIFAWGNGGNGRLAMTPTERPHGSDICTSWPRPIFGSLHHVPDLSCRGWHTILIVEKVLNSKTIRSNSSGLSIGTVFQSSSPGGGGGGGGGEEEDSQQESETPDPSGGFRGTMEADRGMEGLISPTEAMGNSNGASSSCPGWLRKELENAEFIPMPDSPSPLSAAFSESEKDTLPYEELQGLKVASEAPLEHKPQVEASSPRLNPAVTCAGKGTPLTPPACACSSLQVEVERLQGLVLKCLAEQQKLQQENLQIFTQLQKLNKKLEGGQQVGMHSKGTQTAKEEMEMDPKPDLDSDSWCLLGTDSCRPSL
Chain of CDC42BPG (human) (Q6DT37 whole entry, looked up): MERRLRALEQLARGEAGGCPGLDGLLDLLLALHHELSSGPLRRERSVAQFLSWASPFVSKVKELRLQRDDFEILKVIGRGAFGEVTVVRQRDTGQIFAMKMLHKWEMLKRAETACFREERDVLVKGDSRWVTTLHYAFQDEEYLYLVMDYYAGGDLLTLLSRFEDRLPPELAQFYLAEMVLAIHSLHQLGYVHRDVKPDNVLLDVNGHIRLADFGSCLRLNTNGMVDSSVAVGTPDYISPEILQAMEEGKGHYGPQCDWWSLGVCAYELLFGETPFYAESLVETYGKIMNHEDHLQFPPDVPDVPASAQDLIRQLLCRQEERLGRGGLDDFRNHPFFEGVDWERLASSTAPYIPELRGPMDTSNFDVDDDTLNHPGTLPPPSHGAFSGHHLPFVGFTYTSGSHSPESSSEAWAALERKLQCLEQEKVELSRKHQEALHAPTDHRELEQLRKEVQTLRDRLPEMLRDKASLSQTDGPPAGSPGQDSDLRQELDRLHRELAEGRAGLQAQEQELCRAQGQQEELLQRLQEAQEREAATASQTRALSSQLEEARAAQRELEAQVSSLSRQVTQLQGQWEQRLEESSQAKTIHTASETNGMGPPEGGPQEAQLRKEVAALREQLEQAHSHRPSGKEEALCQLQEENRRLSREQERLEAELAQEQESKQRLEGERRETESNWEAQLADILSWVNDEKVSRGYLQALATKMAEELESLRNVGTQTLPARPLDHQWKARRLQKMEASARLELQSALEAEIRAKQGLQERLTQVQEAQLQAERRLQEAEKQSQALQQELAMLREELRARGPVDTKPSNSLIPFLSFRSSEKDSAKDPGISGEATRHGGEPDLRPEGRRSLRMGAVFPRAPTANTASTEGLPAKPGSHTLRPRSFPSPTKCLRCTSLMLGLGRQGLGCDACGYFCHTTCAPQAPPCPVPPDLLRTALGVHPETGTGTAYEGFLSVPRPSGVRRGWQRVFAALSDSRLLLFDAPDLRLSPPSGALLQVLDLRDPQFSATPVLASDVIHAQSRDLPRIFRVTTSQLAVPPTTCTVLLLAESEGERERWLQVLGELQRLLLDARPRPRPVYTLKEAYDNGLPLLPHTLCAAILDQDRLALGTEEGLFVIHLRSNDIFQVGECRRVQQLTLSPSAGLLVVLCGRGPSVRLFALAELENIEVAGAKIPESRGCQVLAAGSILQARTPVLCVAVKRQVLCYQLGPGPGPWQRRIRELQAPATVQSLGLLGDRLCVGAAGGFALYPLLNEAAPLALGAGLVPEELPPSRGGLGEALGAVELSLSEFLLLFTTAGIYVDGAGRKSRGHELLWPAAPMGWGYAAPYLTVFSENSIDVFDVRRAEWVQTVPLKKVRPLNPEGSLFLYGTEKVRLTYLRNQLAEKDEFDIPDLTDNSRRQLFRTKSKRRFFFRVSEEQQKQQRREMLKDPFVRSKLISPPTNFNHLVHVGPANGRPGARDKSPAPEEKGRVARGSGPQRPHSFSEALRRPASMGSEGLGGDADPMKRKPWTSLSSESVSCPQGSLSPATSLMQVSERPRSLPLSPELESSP
Chain of STK32A (human) (Q8WU08 whole entry, looked up): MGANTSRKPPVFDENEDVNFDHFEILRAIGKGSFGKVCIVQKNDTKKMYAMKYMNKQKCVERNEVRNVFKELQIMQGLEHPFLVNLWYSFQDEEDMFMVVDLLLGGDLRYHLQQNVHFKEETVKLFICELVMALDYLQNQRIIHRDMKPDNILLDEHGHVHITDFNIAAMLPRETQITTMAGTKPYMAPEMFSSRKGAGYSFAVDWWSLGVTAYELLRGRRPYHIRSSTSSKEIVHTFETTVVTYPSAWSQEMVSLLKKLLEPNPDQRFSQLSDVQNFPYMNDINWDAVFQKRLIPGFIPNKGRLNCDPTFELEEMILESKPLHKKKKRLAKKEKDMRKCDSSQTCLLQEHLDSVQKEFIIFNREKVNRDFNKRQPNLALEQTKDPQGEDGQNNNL
Chain of KIT (human), P10721 [V559D] (P10721 whole entry V559D, looked up): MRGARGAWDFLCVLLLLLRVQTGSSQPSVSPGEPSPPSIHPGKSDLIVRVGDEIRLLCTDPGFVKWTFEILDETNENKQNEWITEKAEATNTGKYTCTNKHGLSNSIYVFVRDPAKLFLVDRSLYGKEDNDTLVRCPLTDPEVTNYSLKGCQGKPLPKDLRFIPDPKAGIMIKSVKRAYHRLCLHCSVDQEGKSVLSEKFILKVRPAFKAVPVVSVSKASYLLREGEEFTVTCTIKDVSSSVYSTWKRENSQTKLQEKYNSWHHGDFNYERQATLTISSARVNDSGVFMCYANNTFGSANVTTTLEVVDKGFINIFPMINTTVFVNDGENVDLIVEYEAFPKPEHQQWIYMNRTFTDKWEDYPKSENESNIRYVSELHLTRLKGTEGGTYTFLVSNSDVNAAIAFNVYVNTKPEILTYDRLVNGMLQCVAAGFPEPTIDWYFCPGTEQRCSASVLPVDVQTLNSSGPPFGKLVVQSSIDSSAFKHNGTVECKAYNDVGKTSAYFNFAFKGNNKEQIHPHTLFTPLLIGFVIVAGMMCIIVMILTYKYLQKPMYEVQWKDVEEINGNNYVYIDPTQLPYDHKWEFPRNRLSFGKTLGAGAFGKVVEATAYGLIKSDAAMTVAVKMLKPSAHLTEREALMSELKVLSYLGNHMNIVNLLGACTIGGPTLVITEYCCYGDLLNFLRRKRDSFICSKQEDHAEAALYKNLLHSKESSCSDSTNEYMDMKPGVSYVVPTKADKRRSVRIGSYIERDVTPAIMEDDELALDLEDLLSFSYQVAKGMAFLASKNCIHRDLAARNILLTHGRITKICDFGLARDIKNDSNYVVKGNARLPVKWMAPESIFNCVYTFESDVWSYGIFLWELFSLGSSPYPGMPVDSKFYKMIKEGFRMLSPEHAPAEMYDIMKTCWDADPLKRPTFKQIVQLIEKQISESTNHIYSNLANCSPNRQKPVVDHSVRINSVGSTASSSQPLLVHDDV
Chain of FYN (human) (P06241 whole entry, looked up): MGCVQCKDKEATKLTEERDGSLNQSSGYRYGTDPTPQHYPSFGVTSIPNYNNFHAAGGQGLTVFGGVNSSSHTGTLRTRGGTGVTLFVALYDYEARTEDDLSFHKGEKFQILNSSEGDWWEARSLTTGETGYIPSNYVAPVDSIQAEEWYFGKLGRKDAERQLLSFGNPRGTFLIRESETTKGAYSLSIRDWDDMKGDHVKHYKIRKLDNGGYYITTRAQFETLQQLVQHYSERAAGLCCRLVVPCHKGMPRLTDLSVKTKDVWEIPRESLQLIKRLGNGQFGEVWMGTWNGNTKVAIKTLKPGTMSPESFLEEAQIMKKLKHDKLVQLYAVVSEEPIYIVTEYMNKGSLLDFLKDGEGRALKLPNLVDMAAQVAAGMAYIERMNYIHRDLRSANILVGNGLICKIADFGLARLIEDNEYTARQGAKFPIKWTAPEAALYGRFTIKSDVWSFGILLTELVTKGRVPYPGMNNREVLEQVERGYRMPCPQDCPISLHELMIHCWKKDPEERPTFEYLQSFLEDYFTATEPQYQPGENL
Chain of CDK9 (human) (P50750 whole entry, looked up): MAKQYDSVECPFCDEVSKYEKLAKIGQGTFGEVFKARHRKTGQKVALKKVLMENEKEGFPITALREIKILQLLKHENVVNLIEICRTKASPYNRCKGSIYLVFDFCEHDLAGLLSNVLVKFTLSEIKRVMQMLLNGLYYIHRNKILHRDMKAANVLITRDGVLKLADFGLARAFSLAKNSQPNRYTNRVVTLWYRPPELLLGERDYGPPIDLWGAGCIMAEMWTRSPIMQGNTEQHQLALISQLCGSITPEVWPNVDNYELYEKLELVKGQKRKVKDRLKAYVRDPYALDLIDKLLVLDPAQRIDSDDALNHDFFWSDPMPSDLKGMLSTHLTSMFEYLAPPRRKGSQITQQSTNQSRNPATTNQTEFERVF

CC(C)n1nc(-c2cc3cc(O)ccc3[nH]2)c2c(N)ncnc21
per cent of control (CDK9 (human)): 96% | kinase still bound, per cent of control (PRKD3 (human)): 94% | kinase still bound, per cent of control (BMPR1B (human)): 0.1% | kinase still bound, per cent of control (FLT4 (human)): 0.3% | per cent of control (CDK5 (human)): 100% | kinase still bound, per cent of control (LIMK2 (human)): 77% | kinase still bound, per cent of control (PI4KB (human)): 2.4% | kinase still bound, per cent of control (PAK7 (human)): 8.6% | kinase still bound, per cent of control (MAP4K4 (human)): 38% | kinase still bound, per cent of control (FES (human)): 100% | kinase still bound, per cent of control (MAP4K3 (human)): 52% | kinase still bound, per cent of control (SIK3 (human)): 20% | kinase still bound, per cent of control [1]: 0.3% | kinase still bound, per cent of control (TNIK (human)): 2.4% | kinase still bound, per cent of control (PIM1 (human)): 26% | kinase still bound, per cent of control (DAPK3 (human)): 2.8% | kinase still bound, per cent of control (STK32A (human)): 1.8% | kinase still bound, per cent of control [2]: 81% | kinase still bound, per cent of control (PTK2 (human)): 100% | kinase still bound, per cent of control (NEK9 (human)): 100% | kinase still bound, per cent of control (NUAK1 (human)): 86% | kinase still bound, per cent of control (BMP2K (human)): 33% | per cent of control (CDC2L2 (human)): 100% | kinase still bound, per cent of control (MLTK (human)): 29% | kinase still bound, per cent of control (PKN2 (human)): 86% | kinase still bound, per cent of control (AKT1 (human)): 100% | kinase still bound, per cent of control (LTK (human)): 16% | kinase still bound, per cent of control (CDC42BPG (human)): 86% | kinase still bound, per cent of control (MARK3 (human)): 100% | kinase still bound, per cent of control (RIOK2 (human)): 38% | kinase still bound, per cent of control (ZAP70 (human)): 99% | kinase still bound, per cent of control (MAP3K10 (human)): 53% | kinase still bound, per cent of control (EPHA7 (human)): 61% | kinase still bound, per cent of control (STK25 (human)): 53% | kinase still bound, per cent of control (PIK3C2B (human)): 5.6% | kinase still bound, per cent of control (AURKC (human)): 68% | kinase still bound, per cent of control (FYN (human)): 4.6% | kinase still bound, per cent of control (SIK1 (human)): 13%
